Measurements published in patent US9587005B2 (priority 2010, dated 2017).
pEC50: −log10 of the molar value. Read-outs that look alike come from different tables or passages of the source. *1 amine or outer side, *2 acyl side, *3 side chain or, on linkers, in order; H or OH if unused. Where a SMILES comes first, the peptide text is derived from it. Bridges are numbered along the chain shown (N, C = ends). Where no end group is shown, it is not given here. Side-chain parts run from the residue outwards. [ ]: non-standard residue; d: D form. The star is where a group is joined. γGlu = O=C(O)[C@H](CCC(=O)[*:2])N[*:1]; Palmitoyl = CCCCCCCCCCCCCCCC(=O)*; Aib = CC(C)(N)C(=O)O

Experiments:
Format in all cases: cell-based
GIP receptor = target: T1, GIP receptor (Homo sapiens, UniProt P48546); assay: cAMP induction, firefly luciferase reporter assay in HEK293 cells co-transfected with GIP receptor; settings: for EC50: EC50 (nM) at GIP Receptor; for pEC50: Table 3, Example 8, read-out: GIPR EC50; for GIPR relative activity: Table 3, relative to the activity of the native hormone
T1 sequence (P48546 22-466): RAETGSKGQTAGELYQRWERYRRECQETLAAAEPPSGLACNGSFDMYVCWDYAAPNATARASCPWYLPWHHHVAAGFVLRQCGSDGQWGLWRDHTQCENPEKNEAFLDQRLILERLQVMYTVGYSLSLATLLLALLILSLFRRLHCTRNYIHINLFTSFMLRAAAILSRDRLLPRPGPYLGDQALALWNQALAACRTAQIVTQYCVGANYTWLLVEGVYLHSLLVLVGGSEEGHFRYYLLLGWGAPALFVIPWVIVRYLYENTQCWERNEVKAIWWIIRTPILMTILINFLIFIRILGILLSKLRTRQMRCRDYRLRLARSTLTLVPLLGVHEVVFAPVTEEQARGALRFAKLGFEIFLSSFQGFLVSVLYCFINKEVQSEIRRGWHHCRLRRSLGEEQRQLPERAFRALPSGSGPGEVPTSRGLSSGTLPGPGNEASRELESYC

GLP-1 receptor = target: T2, GLP-1 receptor (Homo sapiens, UniProt P43220); assay: cAMP induction, firefly luciferase reporter assay in HEK293 cells co-transfected with GLP-1 receptor; settings: for EC50: EC50 (nM) at GLP-1 Receptor; for pEC50: Table 3, Example 8, read-out: GLP-1R EC50; for GLP-1R relative activity: Table 3, relative to the activity of the native hormone
T2 construct: expressed in transfected cells; host or cells: HEK293
Source text: (§1) This example describes an exemplary method of testing the biological activity of the peptides of the present disclosures, which method involves assaying cAMP synthesis.

glucagon receptor = target: T3, glucagon receptor (Homo sapiens, UniProt P47871); assay: cAMP induction, firefly luciferase reporter assay in HEK293 cells co-transfected with glucagon receptor; settings: for EC50: EC50 (nM) at Glucagon Receptor; for GR relative activity: Table 3, relative to the activity of the native hormone
T3 construct: expressed in transfected cells; host or cells: HEK293
Source text: as §1

[1] = Table 4, Example 9, composite of multiple different activity assays

T3 sequence (P47871 26-477): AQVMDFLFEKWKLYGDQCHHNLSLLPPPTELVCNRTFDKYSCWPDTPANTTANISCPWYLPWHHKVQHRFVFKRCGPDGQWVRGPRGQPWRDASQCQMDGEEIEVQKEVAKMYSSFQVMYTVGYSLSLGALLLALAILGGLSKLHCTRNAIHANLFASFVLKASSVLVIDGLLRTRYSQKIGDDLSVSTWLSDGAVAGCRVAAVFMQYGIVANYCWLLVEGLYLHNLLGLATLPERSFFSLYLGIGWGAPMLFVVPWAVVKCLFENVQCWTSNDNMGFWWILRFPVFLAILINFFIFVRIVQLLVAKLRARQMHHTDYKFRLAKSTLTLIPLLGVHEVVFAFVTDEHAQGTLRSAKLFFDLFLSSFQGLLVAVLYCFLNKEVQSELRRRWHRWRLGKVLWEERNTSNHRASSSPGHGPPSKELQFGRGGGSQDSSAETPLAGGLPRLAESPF
T2 sequence (P43220 24-463): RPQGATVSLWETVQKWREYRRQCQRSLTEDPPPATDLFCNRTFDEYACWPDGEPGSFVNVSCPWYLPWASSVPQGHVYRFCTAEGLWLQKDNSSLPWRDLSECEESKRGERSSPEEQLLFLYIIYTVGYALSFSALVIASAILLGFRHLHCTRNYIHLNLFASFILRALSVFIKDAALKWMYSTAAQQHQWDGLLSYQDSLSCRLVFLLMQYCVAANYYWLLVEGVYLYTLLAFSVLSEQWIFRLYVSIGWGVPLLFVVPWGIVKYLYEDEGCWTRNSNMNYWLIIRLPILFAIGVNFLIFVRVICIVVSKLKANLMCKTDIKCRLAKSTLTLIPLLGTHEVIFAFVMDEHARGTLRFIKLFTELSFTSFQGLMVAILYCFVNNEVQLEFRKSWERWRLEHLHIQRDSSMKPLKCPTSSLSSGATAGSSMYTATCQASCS

Molecule | pEC50 (GIP receptor) | GIPR relative activity (GIP receptor) | pEC50 (GLP-1 receptor) | GLP-1R relative activity (GLP-1 receptor) [%] | GR relative activity (glucagon receptor) [%] | further results
CCCCCCCCCCCCCCCC(=O)N[C@@H](CCC(=O)NCCCC[C@H](NC(=O)[C@H](CC(=O)O)NC(=O)[C@H](CO)NC(=O)[C@@H](NC(=O)[C@H](Cc1ccccc1)NC(=O)[C@@H](NC(=O)CNC(=O)[C@H](CCC(=O)O)NC(=O)C(C)(C)NC(=O)[C@@H](N)Cc1c[nH]cn1)[C@@H](C)O)[C@@H](C)O)C(=O)N[C@@H](CO)C(=O)N[C@@H](CCCCN)C(=O)N[C@@H](Cc1ccc(O)cc1)C(=O)N[C@@H](CC(C)C)C(=O)N[C@@H](CC(=O)O)C(=O)N[C@@H](CCC(=O)O)C(=O)N[C@@H](CCCNC(=N)N)C(=O)N[C@@H](C)C(=O)N[C@@H](C)C(=O)N[C@@H](CCC(N)=O)C(=O)N[C@@H](CC(=O)O)C(=O)N[C@@H](Cc1ccccc1)C(=O)N[C@H](C(=O)N[C@@H](CCC(N)=O)C(=O)N[C@@H](Cc1c[nH]c2ccccc12)C(=O)N[C@@H](CC(C)C)C(=O)N[C@@H](CC(C)C)C(=O)N[C@@H](CC(=O)O)C(=O)NCC(=O)NCC(=O)N1CCC[C@H]1C(=O)N[C@@H](CO)C(=O)N[C@@H](CO)C(=O)NCC(=O)N[C@@H](C)C(=O)N1CCC[C@H]1C(=O)N1CCC[C@H]1C(=O)N1CCC[C@H]1C(=O)N[C@@H](CO)C(N)=O)C(C)C)C(=O)O [compound 39] (H-H[Aib]EGTFTSDK([γGlu-Palmitoyl])SKYLDERAAQDFVQWLLDGGPSSGAPPPS-NH2; N-terminus assumed) | – | – | – | – | – | EC50 (GIP receptor; [1]): 0.026 nM; EC50 (GLP-1 receptor; [1]): 0.008 nM; EC50 (glucagon receptor; [1]): 1.28 nM
CCCCCCCCCCCCCCCC(=O)N[C@@H](CCC(=O)NCCCC[C@H](NC(=O)[C@H](CC(=O)O)NC(=O)[C@H](CO)NC(=O)[C@@H](NC(=O)[C@H](Cc1ccccc1)NC(=O)[C@@H](NC(=O)CNC(=O)[C@H](CCC(N)=O)NC(=O)C(C)(C)NC(=O)[C@@H](N)Cc1c[nH]cn1)[C@@H](C)O)[C@@H](C)O)C(=O)N[C@@H](CO)C(=O)N[C@@H](CCCCN)C(=O)N[C@@H](Cc1ccc(O)cc1)C(=O)N[C@@H](CC(C)C)C(=O)N[C@@H](CC(=O)O)C(=O)N[C@@H](CCC(=O)O)C(=O)N[C@@H](CCCNC(=N)N)C(=O)N[C@@H](CCCNC(=N)N)C(=O)N[C@@H](C)C(=O)NC(C)(C)C(=O)N[C@@H](CCC(=O)O)C(=O)N[C@@H](Cc1ccccc1)C(=O)N[C@H](C(=O)N[C@@H](CCC(N)=O)C(=O)N[C@@H](Cc1c[nH]c2ccccc12)C(=O)N[C@@H](CC(C)C)C(=O)N[C@@H](CC(C)C)C(=O)N[C@@H](CC(=O)O)C(=O)NCC(=O)NCC(=O)N1CCC[C@H]1C(=O)N[C@@H](CO)C(=O)N[C@@H](CO)C(=O)NCC(=O)N[C@@H](C)C(=O)N1CCC[C@H]1C(=O)N1CCC[C@H]1C(=O)N1CCC[C@H]1C(=O)N[C@@H](CO)C(N)=O)C(C)C)C(=O)O [compound 79] (H-H[Aib]QGTFTSDK([γGlu-Palmitoyl])SKYLDERRA[Aib]EFVQWLLDGGPSSGAPPPS-NH2; N-terminus assumed) | – | – | – | – | – | EC50 (GIP receptor; Table 6, Example 12): 0.003 nM; EC50 (GLP-1 receptor; Table 6, Example 12): 0.006 nM; EC50 (glucagon receptor; Table 6, Example 12): 0.004 nM
CCCCCCCCCCCCCCCC(=O)N[C@@H](CCC(=O)N[C@@H](CCC(=O)NCCCC[C@H](NC(=O)[C@H](CC(=O)O)NC(=O)[C@H](CO)NC(=O)[C@@H](NC(=O)[C@H](Cc1ccccc1)NC(=O)[C@@H](NC(=O)CNC(=O)[C@H](CCC(N)=O)NC(=O)C(C)(C)NC(=O)[C@@H](N)Cc1ccc(O)cc1)[C@@H](C)O)[C@@H](C)O)C(=O)N[C@@H](CO)C(=O)N[C@H](C(=O)N[C@@H](Cc1ccc(O)cc1)C(=O)N[C@@H](CC(C)C)C(=O)N[C@@H](CC(=O)O)C(=O)N[C@@H](CCCCN)C(=O)N[C@@H](CCC(N)=O)C(=O)N[C@@H](C)C(=O)N[C@@H](C)C(=O)NC(C)(C)C(=O)N[C@@H](CCC(=O)O)C(=O)N[C@@H](Cc1ccccc1)C(=O)N[C@H](C(=O)N[C@@H](CC(N)=O)C(=O)N[C@@H](Cc1c[nH]c2ccccc12)C(=O)N[C@@H](CC(C)C)C(=O)N[C@@H](CC(C)C)C(=O)N[C@@H](C)C(=O)NCC(=O)NCC(=O)N1CCC[C@H]1C(=O)N[C@@H](CO)C(=O)N[C@@H](CO)C(=O)NCC(=O)N[C@@H](C)C(=O)N1CCC[C@H]1C(=O)N1CCC[C@H]1C(=O)N1CCC[C@H]1C(=O)N[C@@H](CO)C(N)=O)C(C)C)[C@@H](C)CC)C(=O)O)C(=O)O [compound 81] (H-Y[Aib]QGTFTSDK([γGlu-γGlu-Palmitoyl])SIYLDKQAA[Aib]EFVNWLLAGGPSSGAPPPS-NH2; N-terminus assumed) | – | – | – | – | – | EC50 (GIP receptor; Table 6, Example 12): 0.005 nM; EC50 (GLP-1 receptor; Table 6, Example 12): 0.008 nM; EC50 (glucagon receptor; Table 6, Example 12): 0.073 nM
CCCCCCCCCCCCCCCC(=O)N[C@@H](CCC(=O)N[C@@H](CCC(=O)NCCCC[C@H](NC(=O)[C@H](CC(=O)O)NC(=O)[C@H](CO)NC(=O)[C@@H](NC(=O)[C@H](Cc1ccccc1)NC(=O)[C@@H](NC(=O)CNC(=O)[C@H](CCC(N)=O)NC(=O)C(C)(C)NC(=O)[C@@H](N)Cc1ccc(O)cc1)[C@@H](C)O)[C@@H](C)O)C(=O)N[C@@H](CO)C(=O)N[C@H](C(=O)N[C@@H](Cc1ccc(O)cc1)C(=O)N[C@@H](CC(C)C)C(=O)N[C@@H](CC(=O)O)C(=O)N[C@@H](CCCCN)C(=O)N[C@@H](CCC(N)=O)C(=O)N[C@@H](C)C(=O)N[C@@H](C)C(=O)NC(C)(C)C(=O)N[C@@H](CCC(=O)O)C(=O)N[C@@H](Cc1ccccc1)C(=O)N[C@H](C(=O)N[C@@H](CC(N)=O)C(=O)N[C@@H](Cc1c[nH]c2ccccc12)C(=O)N[C@@H](CC(C)C)C(=O)N[C@@H](CC(C)C)C(=O)N[C@@H](CC(=O)O)C(=O)NCC(=O)NCC(=O)N1CCC[C@H]1C(=O)N[C@@H](CO)C(=O)N[C@@H](CO)C(=O)NCC(=O)N[C@@H](C)C(=O)N1CCC[C@H]1C(=O)N1CCC[C@H]1C(=O)N1CCC[C@H]1C(=O)N[C@@H](CO)C(N)=O)C(C)C)[C@@H](C)CC)C(=O)O)C(=O)O [compound 91] (H-Y[Aib]QGTFTSDK([γGlu-γGlu-Palmitoyl])SIYLDKQAA[Aib]EFVNWLLDGGPSSGAPPPS-NH2; N-terminus assumed) | – | – | – | – | – | EC50 (GIP receptor; Table 7, Example 13): 0.005 nM; EC50 (GLP-1 receptor; Table 7, Example 13): 0.008 nM; EC50 (glucagon receptor; Table 7, Example 13): 0.073 nM
Example 8 peptide: Tyr1, AIB2, Glu16/Lys20 lactam, Leu-Ala-Gly 27-29, GPSSGAPPPS 30-39, or a peptide lacking a lactam [mt-217] | 8.02 | 0.20% | 9.65 | 11.26 | 0.82 | –
Example 8 peptide: Tyr1, AIB2, Glu16/Lys20 lactam, Leu-Ala-Gly 27-29, GPSSGAPPPS 30-39, or a peptide lacking a lactam [mt-225] (Y[Aib]QGTFTSDYSIYLDEQAAKEFVNWLLAGGPSSGAPPPSK([Ala-Cys(PEG 40 kDa)-Ac]); lactam 16-20; not fully specified (C-terminus)) | – | 0.90% | – | 29.59 | 1.99 | –
Example 8 peptide: Tyr1, AIB2, Glu16/Lys20 lactam, Leu-Ala-Gly 27-29, GPSSGAPPPS 30-39, or a peptide lacking a lactam [mt-227] (Y[Aib]QGTFTSDYSIYLDEQAAKEFVNWLLAGGPSSGAPPPSK([Arg-Cys(PEG 40 kDa)-Ac]); lactam 16-20; not fully specified (C-terminus)) | – | 1.29% | – | 36.25 | 1.27 | –

Second part, led by results:

pEC50 (GIP receptor) | GIPR relative activity (GIP receptor) | pEC50 (GLP-1 receptor) | GLP-1R relative activity (GLP-1 receptor) [%] | GR relative activity (glucagon receptor) [%] | Molecule | further results
7.85 | 0.13% | 9.47 | 7.40 | 0.70 | Example 8 peptide: Tyr1, AIB2, Glu16/Lys20 lactam, Leu-Ala-Gly 27-29, GPSSGAPPPS 30-39, or a peptide lacking a lactam [mt-218] | –
8.21 | .31% | 9.82 | 16.56 | 0.65 | Example 8 peptide: Tyr1, AIB2, Glu16/Lys20 lactam, Leu-Ala-Gly 27-29, GPSSGAPPPS 30-39, or a peptide lacking a lactam [mt-219] | –
7.99 | 0.19% | 9.74 | 13.89 | 1.18 | Example 8 peptide: Tyr1, AIB2, Glu16/Lys20 lactam, Leu-Ala-Gly 27-29, GPSSGAPPPS 30-39, or a peptide lacking a lactam [mt-220] | –
8.83 | 1.16% | 10.01 | 29.90 | 1.56 | Example 8 peptide: Tyr1, AIB2, Glu16/Lys20 lactam, Leu-Ala-Gly 27-29, GPSSGAPPPS 30-39, or a peptide lacking a lactam [mt-226] | –
8.64 | 0.75% | 9.84 | 19.86 | 1.01 | Example 8 peptide: Tyr1, AIB2, Glu16/Lys20 lactam, Leu-Ala-Gly 27-29, GPSSGAPPPS 30-39, or a peptide lacking a lactam [mt-228] | –
